The values that follow come from ChEMBL document CHEMBL1201862, “PubChem BioAssay data set” (2004).

The structures appear in SMILES notation.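 Where inhibition never reached the appropriate level, the endpoint shown equals the highest concentration tested. Otherwise, values were interpolated linearly from a five-concentration, 48-hour dose response in 96-well plates. At the GI50, growth is halved.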 Activity calls are given as the source filed them. Rule as the data show it: active = GI50 up to about 1.1 µM and inactive = higher.

Test systems include MDA-MB-435; SK-MEL-2; HCT-15; A498; SN12C; MDA-N; UO-31; SNB-75; Hs-578T; SW-620; SK-MEL-5; PC-3; SF-268; Malme-3M; 786-0; OVCAR-4.
Experiment in all cases: inhibition of tumour cell growth, NCI panel, 48 h

For the compound `O=C(c1ccc(Cl)cc1)N(C(=O)N1CCC(c2ccccc2)CC1)c1ccccc1`, the GI50 was 25.8 µM (inactive) in the experiment with MDA-MB-435; 37.2 µM (inactive) in the experiment on SK-MEL-2; 15 µM in the experiment on HCT-15; 20.4 µM (inactive) with A498; 99.5 µM (inactive) in the experiment on SN12C; 39.3 µM (inactive) in the experiment with MDA-N. Besides, the GI50 in the experiment with UO-31 is 12.1 µM (inactive); with SNB-75, 1.83 µM (inactive); in the experiment with Hs-578T, 24.2 µM (inactive); in the experiment on SW-620 it was 92 µM (inactive); in the experiment on SK-MEL-5, 15.4 µM (inactive); in the experiment on PC-3, 6.4 µM (inactive). Besides, the GI50 with SF-268 is 82 µM (inactive); in the experiment with Malme-3M, 10.4 µM (inactive); in the experiment with 786-0, 70.3 µM (inactive).
Regarding `Cc1c(N2C(=O)CS(=O)(=O)C2c2cccc(Oc3ccccc3)c2)c(=O)n(-c2ccccc2)n1C` (stereo not given), the GI50 with MDA-MB-435 is 36.9 µM (inactive); in the experiment with SK-MEL-2, 72.9 µM (inactive); in the experiment on HCT-15, 61.5 µM; with OVCAR-4 it was 14.6 µM (inactive); in the experiment with A498 it was < 0.01 µM (active); with SN12C it was 40.5 µM (inactive). Moreover, the GI50 is 24.8 µM (inactive) with MDA-N; 62.7 µM (inactive) in the experiment on UO-31; 30.9 µM (inactive) in the experiment with Hs-578T; > 100 µM (inactive) in the experiment with SW-620; 35.6 µM (inactive) with SK-MEL-5; 43.3 µM (inactive) with PC-3. Besides, the GI50 in the experiment with SF-268 is 59.3 µM (inactive); with Malme-3M, 0.512 µM (active).
Consider `NC(=S)N/N=C1\C(=O)Nc2c(Cl)cc(Cl)cc21`, for which the GI50 in the experiment with MDA-MB-435 was 16.7 µM (inactive); in the experiment with SK-MEL-2, 15.5 µM (inactive); in the experiment on HCT-15, 24.8 µM; in the experiment with OVCAR-4, 34 µM (inactive); in the experiment on A498 it was 32.4 µM (inactive); with SN12C, 19.5 µM (inactive). In addition, the GI50 is 17.4 µM (inactive) in the experiment on MDA-N; 28.1 µM (inactive) with UO-31; 19 µM (inactive) in the experiment with SNB-75; 24 µM (inactive) with Hs-578T; 30.5 µM (inactive) in the experiment with SW-620; 14.4 µM (inactive) in the experiment with SK-MEL-5. The GI50 with PC-3 is 17.8 µM (inactive); in the experiment on Malme-3M it was 16.2 µM (inactive); in the experiment with 786-0, 22.9 µM (inactive).
Turning to `C1#Cc2ccccc2OCCOc2ccccc2C#Cc2ccccc2OCCOc2ccccc21`, the GI50 in the experiment on MDA-MB-435 was > 100 µM (inactive); in the experiment with SK-MEL-2, 71 µM (inactive); in the experiment with HCT-15, greater than 100 µM; with OVCAR-4 it was 10.9 µM (inactive); in the experiment on A498, 17.3 µM (inactive); with SN12C, 30.7 µM (inactive). Moreover, the GI50 is > 100 µM (inactive) in the experiment on MDA-N; 46.7 µM (inactive) in the experiment with UO-31; 22.5 µM (inactive) in the experiment with Hs-578T; 34 µM (inactive) in the experiment with SW-620; 18.2 µM (inactive) with SK-MEL-5; 52 µM (inactive) in the experiment on PC-3. Besides, the GI50 was 19.7 µM (inactive) in the experiment on SF-268, 28.1 µM (inactive) in the experiment on Malme-3M and 10.3 µM (inactive) in the experiment with 786-0.
Consider `CCN(CC)CCNCc1cc(Cl)cc2c1OCOC2`, for which the GI50 in the experiment on MDA-MB-435 is > 10 µM (inactive); in the experiment on SK-MEL-2, > 10 µM (inactive); with HCT-15, greater than 10 µM; with OVCAR-4, > 10 µM (inactive); in the experiment with A498 it was > 10 µM (inactive); in the experiment with SN12C it was > 10 µM (inactive). In addition, the GI50 in the experiment with MDA-N, in the experiment with UO-31, in the experiment with SNB-75, with Hs-578T, in the experiment on SW-620 and in the experiment with SK-MEL-5 was > 10 µM (inactive) each time. Further, the GI50 in the experiment with PC-3, with SF-268 and with Malme-3M was > 10 µM (inactive) each time.
For `CN(C)c1ccc(/C=N/c2ccc(Oc3ccc(Cl)cc3)c(Cl)c2)cc1`, the GI50 is 24.2 µM (inactive) with MDA-MB-435; 14.5 µM (inactive) in the experiment with SK-MEL-2; 18.9 µM with HCT-15; 22.1 µM (inactive) with OVCAR-4; 21.6 µM (inactive) with SN12C; 21.7 µM (inactive) with MDA-N. Further, the GI50 with UO-31 is 10.7 µM (inactive); in the experiment with SNB-75, 13.1 µM (inactive); in the experiment with Hs-578T it was 15.4 µM (inactive); with SW-620, 30.3 µM (inactive); in the experiment with SK-MEL-5, 15 µM (inactive); in the experiment on PC-3, 15.2 µM (inactive). Also, the GI50 in the experiment with SF-268 is 13.7 µM (inactive); with Malme-3M it was 15.3 µM (inactive).
`CC1=NN(C(=O)c2ccc(Cl)cc2)C(=O)C1/N=N/c1ccc(S(=O)(=O)Nc2ncccn2)cc1` (stereo not given): the GI50 is > 100 µM (inactive) in the experiment on MDA-MB-435; > 100 µM (inactive) in the experiment on SK-MEL-2; greater than 100 µM in the experiment with HCT-15; > 100 µM (inactive) in the experiment with OVCAR-4; > 100 µM (inactive) with SN12C; > 100 µM (inactive) in the experiment on UO-31. For the same compound, the GI50 with SNB-75 is > 100 µM (inactive); with Hs-578T it was > 100 µM (inactive); in the experiment with SW-620, > 100 µM (inactive); in the experiment with SK-MEL-5, > 100 µM (inactive); with PC-3 it was 0.217 µM (active); in the experiment with SF-268, > 100 µM (inactive). The GI50 in the experiment on Malme-3M and with 786-0 was > 100 µM (inactive) in each case.
As to `COc1ccc2[nH]c(Cl)c(/C=C3/C(=O)Nc4cc(C)c(OC)cc43)c2c1`, the GI50 with MDA-MB-435 was 1.23 µM (inactive); with SK-MEL-2, 2.4 µM (inactive); in the experiment on HCT-15 it was 2.91 µM; with A498, 5.82 µM (inactive); with SN12C, 7.43 µM (inactive); in the experiment with MDA-N, 1.58 µM (inactive). Moreover, the GI50 in the experiment with UO-31 was 12.2 µM (inactive); in the experiment with SNB-75 it was 10.8 µM (inactive); in the experiment with Hs-578T it was 3.81 µM (inactive); in the experiment with SW-620 it was 4.21 µM (inactive); with SK-MEL-5, 2.25 µM (inactive); with PC-3, 3.33 µM (inactive). The GI50 in the experiment on SF-268 was 5.75 µM (inactive); in the experiment on Malme-3M, 5.82 µM (inactive); in the experiment on 786-0, 5.68 µM (inactive).
As for `C=Cc1cc2c(cc1O)CC[C@@H]1[C@@H]2CC[C@]2(C)[C@@H](O)CC[C@@H]12`, the GI50 in the experiment on MDA-MB-435 was 1.09 µM (active); in the experiment with SK-MEL-2 it was 5.78 µM (inactive); in the experiment on HCT-15, 3.95 µM; in the experiment on OVCAR-4 it was 11.2 µM (inactive); in the experiment with A498 it was 24.4 µM (inactive); with MDA-N, 1.45 µM (inactive). Moreover, the GI50 in the experiment on UO-31 is 7 µM (inactive); with SNB-75, 5.38 µM (inactive); with SW-620, 4.32 µM (inactive); in the experiment with SK-MEL-5, 4.39 µM (inactive); in the experiment with PC-3, 11.6 µM (inactive); in the experiment on SF-268 it was 4.16 µM (inactive). For the same compound, the GI50 with Malme-3M is 2.18 µM (inactive); with 786-0 it was 4.13 µM (inactive).
With `CCCO[C@@H]1[C@@H](OC(C)=O)[C@@H](OC(C)=O)C(C)(C)/C=C/[C@H](C)C(=O)[C@@]2(OC(C)=O)C[C@@](C)(OC(C)=O)[C@H](OC(C)=O)[C@@H]2[C@H]2OC(=O)CC[C@@]12OC(=O)c1ccccc1`, the GI50 is 15.2 µM (inactive) in the experiment with MDA-MB-435; > 25 µM (inactive) in the experiment on SK-MEL-2; greater than 25 µM in the experiment on HCT-15; > 25 µM (inactive) in the experiment on OVCAR-4; > 25 µM (inactive) with SN12C; 14.9 µM (inactive) in the experiment with MDA-N. In addition, the GI50 with UO-31 is > 25 µM (inactive); in the experiment with SNB-75 it was > 25 µM (inactive); in the experiment on Hs-578T, 12.1 µM (inactive); in the experiment on SW-620, 23.6 µM (inactive); with SK-MEL-5, 19.1 µM (inactive); in the experiment on PC-3 it was 20.4 µM (inactive). The GI50 with SF-268 is > 25 µM (inactive); in the experiment with Malme-3M, 17.5 µM (inactive).
As for `CO/N=C1/c2sccc2[C@H](NC(=O)CNC(=O)OC(C)(C)C)[C@@H]1O`, the GI50 in the experiment on MDA-MB-435 was > 100 µM (inactive); in the experiment with SK-MEL-2, > 100 µM (inactive); in the experiment with HCT-15 it was greater than 100 µM; in the experiment with OVCAR-4, > 100 µM (inactive); in the experiment on A498, > 100 µM (inactive); in the experiment on SN12C it was > 100 µM (inactive). Also, the GI50 with MDA-N, in the experiment with UO-31, with SNB-75, in the experiment with Hs-578T, in the experiment on SW-620 and in the experiment with SK-MEL-5 was > 100 µM (inactive) throughout. Also, the GI50 with PC-3, in the experiment with SF-268 and in the experiment with Malme-3M was > 100 µM (inactive) throughout.
Take `CCC(=O)NC(OCC1(CC)COC1)(C(F)(F)F)C(F)(F)F`: the GI50 in the experiment on MDA-MB-435 was > 100 µM (inactive); with SK-MEL-2, > 100 µM (inactive); in the experiment with HCT-15, greater than 100 µM; in the experiment with A498, > 100 µM (inactive); in the experiment on SN12C it was > 100 µM (inactive); in the experiment with MDA-N, > 100 µM (inactive). Moreover, the GI50 in the experiment on UO-31, with SNB-75, in the experiment on Hs-578T, in the experiment with SF-268 and with Malme-3M was > 100 µM (inactive) each time.
For the compound `CC(C)(C)NC(=S)N/N=C/c1ccccn1`, the GI50 in the experiment with MDA-MB-435 was 3.61 µM (inactive); in the experiment on SK-MEL-2, 0.724 µM (active); in the experiment on HCT-15, less than 0.0159 µM; in the experiment on A498, 2.73 µM (inactive); with SN12C, 3.16 µM (inactive); in the experiment with MDA-N it was 1.58 µM (inactive). For the same compound, the GI50 is 0.259 µM (active) with UO-31; > 100 µM (inactive) in the experiment on SNB-75; > 32.2 µM (inactive) with Hs-578T; < 0.0113 µM (active) in the experiment with SW-620; 0.409 µM (active) in the experiment with SK-MEL-5; < 0.0164 µM (active) in the experiment on PC-3. Also, the figures for the GI50 in the experiment with SF-268, in the experiment on Malme-3M and in the experiment with 786-0 were 0.863 µM (active), 3.72 µM (inactive) and 0.0545 µM (active), respectively.
As for `CC(C)CCCC(C)[C@H]1CC[C@H]2[C@@H]3CC[C@H]4C[C@@H](CCC=C(c5cc(Cl)c(O)c(C(=O)OC(C)(C)C)c5)c5cc(Cl)c(O)c(C(=O)OC(C)(C)C)c5)CC[C@]4(C)[C@H]3CC[C@]12C` (stereo not given in full), the GI50 with MDA-MB-435 is > 50 µM (inactive); with SK-MEL-2 it was > 50 µM (inactive); with HCT-15, greater than 50 µM; with OVCAR-4, > 50 µM (inactive); in the experiment with A498, > 50 µM (inactive); with SN12C it was > 50 µM (inactive). The GI50 with MDA-N, in the experiment on SNB-75, in the experiment on Hs-578T, in the experiment with SW-620, in the experiment with SK-MEL-5 and in the experiment on PC-3 was > 50 µM (inactive) each time. Also, the GI50 in the experiment with SF-268 and in the experiment with 786-0 was > 50 µM (inactive) in each case.
